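Assay format: 96-well plates, 48-hour exposure. GI50 = concentration required for 50% inhibition of growth.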 Calls of active or inactive are those of the source. Cut-off read from the data, not from the text of the source: active = GI50 up to about 1.1 µM and inactive = higher.
What was measured:
Experiment in all cases: DTP human tumour cell line panel, 48 h
CAKI-1 = system: CAKI-1
Malme-3M = system: Malme-3M
HCC 2998 = system: HCC 2998
NCI-H23 = system: NCI-H23
OVCAR-3 = system: OVCAR-3
TK-10 = system: TK-10
KM12 = system: KM12
SW-620 = system: SW-620
OVCAR-5 = system: OVCAR-5
SN12C = system: SN12C
EKVX = system: EKVX
UACC-62 = system: UACC-62
SK-OV-3 = system: SK-OV-3
A549 = system: A549
COLO 205 = system: COLO 205
IGROV-1 = system: IGROV-1
LOX IMVI = system: LOX IMVI
HCT-15 = system: HCT-15
OVCAR-8 = system: OVCAR-8
M14 = system: M14

Structure (SMILES) | GI50 (CAKI-1) | GI50 (Malme-3M) | GI50 (HCC 2998) | GI50 (NCI-H23) | GI50 (OVCAR-3) | GI50 (TK-10) | GI50 (KM12) | GI50 (SW-620) | GI50 (OVCAR-5) | GI50 (SN12C) | GI50 (EKVX) | GI50 (UACC-62) | GI50 (SK-OV-3) | GI50 (A549) | GI50 (COLO 205) | GI50 (IGROV-1) | GI50 (LOX IMVI) | GI50 (HCT-15) | GI50 (OVCAR-8) | GI50 (M14)
C[C@]12CCC(=O)C=C1CC[C@@H]1[C@@H]2[C@@H](O)C[C@@]2(C)[C@H]1CC[C@]2(O)C(=O)COC(=O)C1CCCC1 | > 100 µM (inactive) | > 100 µM (inactive) | > 100 µM (inactive) | > 100 µM (inactive) | > 100 µM (inactive) | > 100 µM (inactive) | > 100 µM (inactive) | > 100 µM (inactive) | > 100 µM (inactive) | > 100 µM (inactive) | 32.7 µM (inactive) | > 100 µM (inactive) | > 100 µM (inactive) | 58.2 µM (inactive) | > 100 µM (inactive) | > 100 µM (inactive) | > 100 µM (inactive) | > 100 µM | > 100 µM (inactive) | > 100 µM (inactive)
COC(=O)N1C=Cc2c(c(C)c3c([nH]c4ccccc43)c2C)C1C (stereo unspecified) | 18.1 µM (inactive) | 18.1 µM (inactive) | 16.8 µM (inactive) | 17.7 µM (inactive) | 16.3 µM (inactive) | 19.6 µM (inactive) |  | 17.7 µM (inactive) | 17.2 µM (inactive) |  | 14 µM (inactive) | 18 µM (inactive) | 27.4 µM (inactive) | 18 µM (inactive) | 18.7 µM (inactive) | 25.2 µM (inactive) | 16.4 µM (inactive) | 10.6 µM | 18.3 µM (inactive) | 29.6 µM (inactive)
O=c1sc(Nc2ccc3ccccc3c2Cl)nc2ccccc12 | 35.9 µM (inactive) | > 100 µM (inactive) | > 100 µM (inactive) | > 100 µM (inactive) | > 100 µM (inactive) | > 100 µM (inactive) | > 100 µM (inactive) | > 100 µM (inactive) | > 100 µM (inactive) | > 100 µM (inactive) | > 100 µM (inactive) | > 100 µM (inactive) | > 100 µM (inactive) | > 100 µM (inactive) | > 100 µM (inactive) | > 100 µM (inactive) | > 100 µM (inactive) | > 100 µM |  | 
S=c1c2nc[nH]c2ncn1CCSC1=NC=NC2=NC=NC21 (stereo unspecified) | > 100 µM (inactive) | > 100 µM (inactive) | > 100 µM (inactive) | > 100 µM (inactive) | 57.1 µM (inactive) | > 76.2 µM (inactive) | 76.2 µM (inactive) | > 100 µM (inactive) | > 100 µM (inactive) | > 100 µM (inactive) | > 100 µM (inactive) | 79.8 µM (inactive) | 52.2 µM (inactive) | > 100 µM (inactive) | > 100 µM (inactive) | > 100 µM (inactive) | 44.7 µM (inactive) | > 100 µM | > 100 µM (inactive) | 43.8 µM (inactive)
CCCCCCCCCCCC(=O)C1=C(O)CCC(O)C1=O (stereo unspecified) | 23 µM (inactive) | 17 µM (inactive) | 22 µM (inactive) | 3.48 µM (inactive) | 10.8 µM (inactive) | 18.4 µM (inactive) | 17.9 µM (inactive) | 13.2 µM (inactive) | 27.7 µM (inactive) | 21.8 µM (inactive) | 5.86 µM (inactive) | 10.8 µM (inactive) | 26.8 µM (inactive) | 29.9 µM (inactive) | 15.1 µM (inactive) | 19.9 µM (inactive) | 11.3 µM (inactive) | 8.89 µM | 10.1 µM (inactive) | 
O=C(CC1(O)C(=O)Nc2c(Cl)cc(Cl)cc21)c1ccco1 (stereo unspecified) | 45 µM (inactive) | > 100 µM (inactive) | 48.8 µM (inactive) | 56.1 µM (inactive) | 21.2 µM (inactive) | 88.1 µM (inactive) | 32.7 µM (inactive) | 50.4 µM (inactive) | > 100 µM (inactive) | 63.8 µM (inactive) | 59.2 µM (inactive) |  | > 100 µM (inactive) | > 100 µM (inactive) | > 100 µM (inactive) |  | 33.1 µM (inactive) | 40.5 µM | 37.4 µM (inactive) | 54 µM (inactive)
O=C1c2ccccc2C(=O)c2c1sc1nc3ccccc3n21 | 1.99 µM (inactive) | 0.439 µM (active) | 1.73 µM (inactive) | 1.29 µM (inactive) | 2.86 µM (inactive) | 4.19 µM (inactive) | 1.83 µM (inactive) |  | 2.45 µM (inactive) | 1.52 µM (inactive) | 2.4 µM (inactive) | 1.87 µM (inactive) | 6.87 µM (inactive) | 10.7 µM (inactive) | 1.8 µM (inactive) | 2.44 µM (inactive) | 0.893 µM (active) | 1.36 µM | 1.9 µM (inactive) | 1.73 µM (inactive)
O=c1ccn(C2OC(COC3CCCCO3)C(OC3CCCCO3)C2OC2CCCCO2)c(=O)n1-c1ccccc1 (stereo unspecified) | > 100 µM (inactive) | > 100 µM (inactive) | > 100 µM (inactive) | > 100 µM (inactive) | > 100 µM (inactive) | > 100 µM (inactive) | > 100 µM (inactive) | > 100 µM (inactive) | > 100 µM (inactive) | > 100 µM (inactive) | > 100 µM (inactive) |  | > 100 µM (inactive) | > 100 µM (inactive) | > 100 µM (inactive) | > 100 µM (inactive) | > 100 µM (inactive) | > 100 µM | > 100 µM (inactive) | > 100 µM (inactive)
O=C(CCC(=O)OCC1OC(O)(CC2OC(CO)C(O)C(O)C2O)C(O)C1O)OCc1ccccc1 (stereo unspecified) | > 100 µM (inactive) | > 100 µM (inactive) | > 100 µM (inactive) | > 100 µM (inactive) | > 100 µM (inactive) | > 100 µM (inactive) | > 100 µM (inactive) | > 100 µM (inactive) | > 100 µM (inactive) | > 100 µM (inactive) | > 100 µM (inactive) | > 100 µM (inactive) | > 100 µM (inactive) | > 100 µM (inactive) | > 100 µM (inactive) | > 100 µM (inactive) | > 100 µM (inactive) | > 100 µM | > 100 µM (inactive) | > 100 µM (inactive)
COC(=O)C1(OC(=O)Sc2ccccc2)CCN(C)CC1 | 4.95 µM (inactive) | 63.7 µM (inactive) | 28.6 µM (inactive) | 14.1 µM (inactive) | 11 µM (inactive) | 41.3 µM (inactive) | 10.9 µM (inactive) | 21.7 µM (inactive) | 35.3 µM (inactive) | 3.9 µM (inactive) | 9.1 µM (inactive) | 21.3 µM (inactive) | 33.3 µM (inactive) | 11.4 µM (inactive) | 9.82 µM (inactive) | 4.75 µM (inactive) | 8.07 µM (inactive) | 34.9 µM | 16.7 µM (inactive) | 15.5 µM (inactive)
CC(C)(C)OC(=O)NC(Cc1ccccc1)C(=O)N[C@H]1c2ccsc2/C(=N/O)[C@H]1O (stereo partly specified) | > 100 µM (inactive) | > 100 µM (inactive) | > 100 µM (inactive) | > 100 µM (inactive) | > 100 µM (inactive) | > 100 µM (inactive) |  | > 100 µM (inactive) | > 100 µM (inactive) | > 100 µM (inactive) | > 100 µM (inactive) | > 100 µM (inactive) | > 100 µM (inactive) | > 100 µM (inactive) | > 100 µM (inactive) | > 100 µM (inactive) | > 100 µM (inactive) | > 100 µM | > 100 µM (inactive) | > 100 µM (inactive)
N#C/C(=C/c1ccco1)C(=O)c1ccccc1 | > 100 µM (inactive) | > 100 µM (inactive) | > 100 µM (inactive) | > 100 µM (inactive) |  | > 100 µM (inactive) | > 100 µM (inactive) | > 100 µM (inactive) | > 100 µM (inactive) | > 100 µM (inactive) | > 100 µM (inactive) | > 100 µM (inactive) | > 100 µM (inactive) | > 100 µM (inactive) | > 100 µM (inactive) | > 100 µM (inactive) | > 100 µM (inactive) | > 100 µM | > 100 µM (inactive) | > 100 µM (inactive)
CCOC(=O)C(NC(=O)c1cccc(Cl)c1)(Nc1ccc(S(=O)(=O)Nc2cc(C)on2)cc1)C(F)(F)F (stereo unspecified) | > 100 µM (inactive) | > 100 µM (inactive) | > 100 µM (inactive) | > 100 µM (inactive) | > 100 µM (inactive) | > 100 µM (inactive) | > 100 µM (inactive) | > 100 µM (inactive) | > 100 µM (inactive) | > 100 µM (inactive) | > 100 µM (inactive) |  | > 100 µM (inactive) | > 100 µM (inactive) | > 100 µM (inactive) | > 100 µM (inactive) | > 100 µM (inactive) | > 100 µM | > 100 µM (inactive) | > 100 µM (inactive)
COC1O[C@H]2CCN(C(=O)OCc3ccccc3)[C@H]2[C@H]1OCc1ccccc1 (stereo partly specified) | 40.3 µM (inactive) | 45.6 µM (inactive) | 47.6 µM (inactive) | 20.3 µM (inactive) | 42.6 µM (inactive) | > 41.4 µM (inactive) |  | 50.2 µM (inactive) | > 100 µM (inactive) | > 100 µM (inactive) | 49.2 µM (inactive) | 21.5 µM (inactive) | 23.6 µM (inactive) | 4.33 µM (inactive) | 70.3 µM (inactive) | 49.5 µM (inactive) | 56.6 µM (inactive) | 36.5 µM | 69.7 µM (inactive) | 46.3 µM (inactive)
COc1cc(/C=C/C(=O)CC(=O)/C=C/c2ccc(O)c(OC)c2)ccc1O [CURCUMIN] | 11.9 µM (inactive) | 14 µM (inactive) | 3.02 µM (inactive) | 5.6 µM (inactive) | 6.64 µM (inactive) | 14.2 µM (inactive) | 5.45 µM (inactive) | 4.19 µM (inactive) | 16.6 µM (inactive) | 8.41 µM (inactive) |  | 6.49 µM (inactive) | 8.91 µM (inactive) | 12.8 µM (inactive) | 13.5 µM (inactive) | 7.89 µM (inactive) | 2.72 µM (inactive) | 4.12 µM | 7.35 µM (inactive) | 3.78 µM (inactive)

From ChEMBL document CHEMBL1201862, “PubChem BioAssay data set” (2004)
